From patent US20240041814A1, “USE OF REAGENT FOR DETECTING RETINOL METABOLITE IN PREPARATION OF TOOL FOR DIAGNOSING AND/OR TREATING PNEUMOCONIOSIS” (Institute of Basic Medical Sciences of Chinese Academy of …, priority 2022, published 2024)

How the values were obtained:
[1] = test system: FN-1 and Col-I; assay: Western blot and qPCR of fibrosis factors in mouse lung tissue; format: in vivo; details: mice with pneumoconiosis, 10 mg/kg ATRA intragastrically 3 times a week for 4 weeks
Method: Male C57BL/6J mice (aged 8-10 weeks and weighing 25-30 g) were selected and housed in an SPF grade laboratory animal room, and the model of pneumoconiosis was constructed by one-time intratracheal instillation of silica (Si); the mice were divided into four groups (n=9): (1) PBS+vehicle group: 40 μL of sterile phosphate-buffered saline (PBS) was administered by intratracheal instillation; two weeks later, corn oil was administered intragastrically 3 times a week, for 4 weeks; (2) PBS+ATRA group: 40 μL of sterile PBS was administered by intratracheal instillation; two weeks later, 10 mg/kg ATRA was administered intragastrically 3 times a week, for 4 weeks; (3) Si+vehicle group: a silica suspension (300 mg/mL, 40 μL) was administered by intratracheal instillation; two weeks later, corn oil was administered intragastrically 3 times a week, for 4 weeks; (4) Si+ATRA group: a silica suspension (300 mg/mL, 40 μL) was administered by intratracheal instillation; two weeks later, 10 mg/kg ATRA was administered intragastrically 3 times a week, for 4 weeks. All mice were sacrificed after 6 weeks, and the corresponding samples were collected for detection. Lung tissue proteins of all mice were extracted. […]

[2] = test system: mice with pneumoconiosis; assay: Mouse model of pneumoconiosis (intratracheal silica) with ATRA treatment, overall outcome; format: in vivo; details: 10 mg/kg ATRA intragastrically 3 times a week for 4 weeks
[3] = test system: mice with pneumoconiosis; assay: Pathological staining of lung (HE, Szapiel score; Masson, Aschroft score); format: in vivo, mouse; details: 10 mg/kg ATRA intragastrically 3 times a week for 4 weeks
Method: Male C57BL/6J mice (aged 8-10 weeks and weighing 25-30 g) were selected and housed in an SPF grade laboratory animal room, and the model of pneumoconiosis was constructed by one-time intratracheal instillation of silica (Si); the mice were divided into four groups (n=9): (1) PBS+vehicle group: 40 μL of sterile phosphate-buffered saline (PBS) was administered by intratracheal instillation; two weeks later, corn oil was administered intragastrically 3 times a week, for 4 weeks; (2) PBS+ATRA group: 40 μL of sterile PBS was administered by intratracheal instillation; two weeks later, 10 mg/kg ATRA was administered intragastrically 3 times a week, for 4 weeks; (3) Si+vehicle group: a silica suspension (300 mg/mL, 40 μL) was administered by intratracheal instillation; two weeks later, corn oil was administered intragastrically 3 times a week, for 4 weeks; (4) Si+ATRA group: a silica suspension (300 mg/mL, 40 μL) was administered by intratracheal instillation; two weeks later, 10 mg/kg ATRA was administered intragastrically 3 times a week, for 4 weeks. All mice were sacrificed after 6 weeks, and the corresponding samples were collected for detection. […] For HE staining, inflammation was scored based on Szapiel scores; for Masson staining, the severity of fibrosis was scored by Aschroft scores. The sections were scanned, photographed and counted by a 3D HISTECH digital slide scanner.

[4] = test system: mice with pneumoconiosis; assay: Cardiopulmonary function test (RVSP, lung function IC and Cst); format: in vivo, mouse; details: ATRA-treated mice with pneumoconiosis compared with control mice, 10 mg/kg intragastrically 3 times a week for 4 weeks
Method: Male C57BL/6J mice (aged 8-10 weeks and weighing 25-30 g) were selected and housed in an SPF grade laboratory animal room, and the model of pneumoconiosis was constructed by one-time intratracheal instillation of silica (Si); the mice were divided into four groups (n=9): (1) PBS+vehicle group: 40 μL of sterile phosphate-buffered saline (PBS) was administered by intratracheal instillation; two weeks later, corn oil was administered intragastrically 3 times a week, for 4 weeks; (2) PBS+ATRA group: 40 μL of sterile PBS was administered by intratracheal instillation; two weeks later, 10 mg/kg ATRA was administered intragastrically 3 times a week, for 4 weeks; (3) Si+vehicle group: a silica suspension (300 mg/mL, 40 μL) was administered by intratracheal instillation; two weeks later, corn oil was administered intragastrically 3 times a week, for 4 weeks; (4) Si+ATRA group: a silica suspension (300 mg/mL, 40 μL) was administered by intratracheal instillation; two weeks later, 10 mg/kg ATRA was administered intragastrically 3 times a week, for 4 weeks. All mice were sacrificed after 6 weeks, and the corresponding samples were collected for detection. An anesthetized mouse was fixed on an experimental bench, and an 8 gauge needle connected with a high-fidelity pressure sensor was inserted into the right ventricle to directly measure the invasive right ventricular systolic pressure (RVSP). The RVSP was recorded and analyzed by a Power Lab data acquisition and analysis system (PL 3504, AD Instruments, Australia). Mouse lung function was detected by a pulmonary function testing system (DSI Buxco, USA). Before experiment, the mouse was anesthetized by intraperitoneal injection of 0.4 mL/100 g 2% pentobarbital, tracheotomy was performed, a trachea cannula was inserted, and a ventilator was connected. […] A statistical analysis was conducted on indexes closely related to lung function changes of pneumoconiosis, including inspiratory capacity (IC) and quasi-static compliance (Cst).

[5] = test system: IL-1β and IL-6; assay: ELISA of inflammatory factors in mouse BALF; format: in vivo; details: mice with pneumoconiosis, 10 mg/kg ATRA intragastrically 3 times a week for 4 weeks
Method: Male C57BL/6J mice (aged 8-10 weeks and weighing 25-30 g) were selected and housed in an SPF grade laboratory animal room, and the model of pneumoconiosis was constructed by one-time intratracheal instillation of silica (Si); the mice were divided into four groups (n=9): (1) PBS+vehicle group: 40 μL of sterile phosphate-buffered saline (PBS) was administered by intratracheal instillation; two weeks later, corn oil was administered intragastrically 3 times a week, for 4 weeks; (2) PBS+ATRA group: 40 μL of sterile PBS was administered by intratracheal instillation; two weeks later, 10 mg/kg ATRA was administered intragastrically 3 times a week, for 4 weeks; (3) Si+vehicle group: a silica suspension (300 mg/mL, 40 μL) was administered by intratracheal instillation; two weeks later, corn oil was administered intragastrically 3 times a week, for 4 weeks; (4) Si+ATRA group: a silica suspension (300 mg/mL, 40 μL) was administered by intratracheal instillation; two weeks later, 10 mg/kg ATRA was administered intragastrically 3 times a week, for 4 weeks. All mice were sacrificed after 6 weeks, and the corresponding samples were collected for detection.
Concentrations of inflammatory factors IL-1β and IL-6 in mouse BALF were detected by using ELISA kits.

In the case of `CC1=C(/C=C/C(C)=C/C=C/C(C)=C/C(=O)O)C(C)(C)CCC1` [ATRA, All-trans retinoic acid], the “level of fibrosis factor Col-I in lung tissue (transcriptional)” value [1] is reported as “reduced levels”, the “level of fibrosis factor FN-1 in lung tissue (translational and transcriptional)” value [1] is reported as “reduced levels” and the “cardiopulmonary function, inflammation, and fibrosis” value [2] is reported as “significantly improve”. The “severity of fibrosis (Masson staining)” value [3] was “reduce the severity”, the “severity of inflammation (HE staining)” value [3] was “reduce the severity” and the “inspiratory capacity (IC)” value [4] was “improved to a certain extent”. The “quasi-static compliance (Cst)” value [4] was “improved to a certain extent”, the “right ventricular systolic pressure (RVSP)” value [4] was “lowered to a certain extent” and the “concentration of IL-1β in BALF” value [5] was “lowered concentrations”. For the same molecule, the “concentration of IL-6 in BALF” value [5] was “lowered concentrations”.
